# Columns and labels:
# SAS cells = assay: SAS cell proliferation / morphology; assay type: cell-based; details: 2.5 uM and 5 uM, 24 hours
# HeLa cells [1] = assay: Autophagosome formation, GFP-LC3 fluorescence microscopy; assay type: cell-based, human; details: HeLa cells transfected with GFP-LC3; 2.5 μM NSC745885, 12 hours
# Procedure: In FIG. 5B, HeLa cells were transfected with 0.25 μg of an expression vector for GFP-LC3 for 24 hours and then treated with 2.5 μM NSC745885 for 12 hours. […] Vehicle (DMSO) and spermidine (Spd) were used as a negative and positive control, respectively.
# In FIGS. 5C and 5D, HeLa cells were incubated with 2.5 μM NSC745885 for 24 hours. After 48 hours, cells were subjected to SA-β-galactosidase staining (FIG. 5C) and approximately 100 stained cells were quantified (*P<0.05; ** P<0.01; *** P<0.005). NSC745885 induced senescence at a rate of 25% (P=0.0085 compared to DMSO). (FIG. 5D) LC3B-I fragments were observed when the cells were exposed to the drug for longer period of time (FIG. 5A, panel labeled as LE). […] We also treated Hela cells with the autophagy inducer spermidine (Spd) and vehicle (DMSO), which act as the positive and the negative control, respectively.
# fibroblast 3T3 = assay: Cell toxicity in non-cancer cell; assay type: cell-based
# Text: To investigate the cell proliferation inhibition effect of NSC745885 in cancer cells, we compared the cancer cell proliferation inhibition effect of the NSC745885 with well-know bladder anti-cancer agent “Emodin” and clinical cancer chemical therapy agent “Doxorubicin”. The experiment bladder cancer cell lines includes T24 (FIG. 9A, 9D) and MBT2 (FIG. 9 B, 9E). We also confirm the NSC745885 cell toxicity using the non-cancer cell fibroblast 3T3 (FIG. 9C) and normal epithelial cell SV_UC—1 (FIG. 9F).
# HeLa cells [2] = assay: Autophagy: LC3B-II immunoblot; assay type: cell-based, human; details: 12 hours
# Procedure: (§1) Cell lysates were prepared in lysis buffer (100 mM Tris-HCl pH 8.0, 150 mM NaCl, 0.1% SDS, and 1% Triton 100) at 4° C., separated by sodium dodecyl sulfate-polyacrylamide gel electrophoresis (SDS-PAGE), and then transferred onto a polyvinylidine difluoride membrane (Millipore, USA). Proteins were detected using antibodies against alpha actinin (ACTN), proliferating cell nuclear antigen (PCNA), p53, p21, cyclin B1, and cyclin D1 (Santa Cruz Biotechnology, USA), YH2A.X (EP854(2)Y, Epitomics, USA), cleaved caspase 3, cleaved poly(ADP-ribose) polymerase (PARP) and LC3B-II (Cell signaling, USA).
# Altered intracellular localization of LC3B (LC3B-I) and increased electrophoretic mobility of LC3B (LC3B-II) are correlated with recruitment to autophagic membranes and can be used as molecular markers for autophagic activation.
# In FIG. 5A, HeLa cells were treated with the indicated concentrations of DXR, NSC745885 for 12 hours, and then cell lysates were analyzed by immunoblot using antibodies directed against LC3. The results are representative of three independent experiments.
# HeLa cells [3] = assay: Cell cycle profile by FACS; assay type: cell-based, human; details: dose- and time-dependent
# Text: Cell cycle arrest is an important damage surveillance mechanism. […] Treating the cells with NSC745885 caused 47-58% of cells to arrest in sub-G1, which is indicative of cell death. This effect was dose- and time-dependent (FIG. 3, Panel B).
# CAK1-1 = assay: NCI 60-cell panel dose-response; assay type: cell-based; details: CAK1-1 (Renal cancer)
# HCC-2998 = assay: NCI 60-cell panel dose-response; assay type: cell-based; details: Homo sapiens; HCC-2998 (Colon cancer)
# HeLa/shp53 cells = assay: MTT cell viability assay, HeLa vs HeLa/shp53; assay type: cell-based, human; details: endogenous p53 silenced; 24, 48, 72 hours
# Procedure: (§2) HeLa and HeLa/shp53 cells were grown in DMEM supplemented with 10% charcoal/dextran-treated fetal bovine serum. Cells in a 24-well plate were transfected with jetPEI (PolyPlus-transfection, France) according to the manufacturer's protocol; total DNA was adjusted to 1.0 μg by the addition of empty vector DNA. Luciferase assays were performed using the Promega Luciferase Assay kit, and the measurement was expressed numerically as relative light units (RLU). Luciferase activities were presented as means and standard deviation of two transfected sets. […] Instead, the reproducibility of the observed effects on luciferase activity was determined in multiple independent transfection experiments.
# To understand the functional role that endogenous p53 plays in the cytotoxic effects of DXR and NSC745885, we measured cell viability of HeLa or HeLa/shp53 cells using MTT cell viability assay. In this assay, endogenous p53 is silenced, both in the presence or absence of the drugs (FIG. 8). […]
# OVCAR-3 = assay: NCI 60-cell panel dose-response; details: Homo sapiens, OVCAR-3, read-out: LC50
# U1R = assay: Cell proliferation inhibition in anti-Doxorubicin cell line; assay type: cell-based
# p53 and p21 = p53 and p21 protein expression, immunoblot; assay type: cell-based, human; details: HeLa cells, 12 hours, immunoblot
# Procedure: as §1
# Cell cycle regulatory protein p21 is one of p53's targets. […] In this experiment, HeLa cells were treated with the indicated concentrations of DXR or NSC745885 for 12 hours and then assessed by immunoblot (FIG. 6A) and RT-PCR (FIG. 6B).
# In FIG. 6C, HeLa cells were treated with the indicated concentrations of NSC745885 for 12 hours; proteasome inhibitor MG132 (1 uM or 10 uM) was added 3 hours before harvesting. Cell protein extracts were tested with anti-p53 and anti-p21 antibodies. The results are representative of two independent experiments.
# [4] = test system: p21 promoter reporter (p21-LUC); assay: p21 promoter reporter (p21-LUC) luciferase assay; assay type: cell-based, human; details: HeLa cells, highest concentration
# Procedure: as §2
# HeLa cells infected with human papillomavirus and expressing the E6 oncoprotein, which maintains endogenous wild-type p53 at a very low concentration, are used as a model system for studying human cervical tumorigenesis. In order for us to confirm the effects of DXR and NSC745885 on endogenous p53, HeLa cells were transiently transfected with a p53-dependent reporter (pG13-LUC) (FIG. 7A) and a p21 promoter reporter (p21-LUC) (FIG. 7B), along with an expression vector for a well-known p53 activator (Zac1).
# COLO 205 = assay: NCI 60-cell panel dose-response; assay type: cell-based; details: Homo sapiens; COLO 205 (Colon cancer)
smiles,measurement,setting,value
"O=C1c2ccccc2C(=O)c2c1ccc1nsnc21 [NSC745885, anthra[2,1-c][1,2,5]thiadiazole-6,11-dione]",SAS cells proliferation,SAS cells,significantly inhibit
same,"autophagosome formation (LC3 aggregation, GFP-LC3)",HeLa cells [1],autophagosome formation
same,cell toxicity in normal cell,fibroblast 3T3,no cell toxicity
same,LC3B-II fragment formation (autophagic activation),HeLa cells [2],LC3B-II fragment formation
same,cells arrested in sub-G1,HeLa cells [3],47-58%
same,TGI,CAK1-1,2.96 µmol/L
same,GI50,"CAK1-1; Homo sapiens, 60 cell",1610 nM
same,CC50,"CAK1-1; Homo sapiens, 60 cell, read-out: LC50 (the source's name)",5.44 µM
same,GI50,HCC-2998,16.4 µM
same,"sensitivity (cell viability, MTT) in HeLa/shp53 versus HeLa cells",HeLa/shp53 cells,significantly enhanced
same,CC50,OVCAR-3,11.1 µM
same,cell proliferation inhibition,U1R,distinct the cell proliferation inhibiting ability
same,p53 and p21 protein levels,p53 and p21,decreased p21 as well as p53 in a concentration-dependent manner
same,p21 promoter reporter activity,[4],decreased p21 promoter reporter activity
same,GI50,COLO 205,13.4 µM

# Source: patent US8772321B2, “Heteroannelated anthraquinone derivatives for inhibiting cancers” (National Defense Medical Center, priority 2008, dated 2014)
